Experimental data published in patent US20090215908A1, “TOLL LIKE RECEPTOR (TLR) SIGNALING ANTAGONIST” (RELIANCE LIFE SCIENCES PVT. LTD., priority 2007, published 2009).

Columns and labels:
TLR4 [1] = target: T1, TLR4 (Homo sapiens, UniProt O00206); test: TLR4 ligand induced TNF-α secretion in PBMCs (ELISA); assay type: cell-based; conditions: 1 hr pretreatment, TLR4 ligand 750 ng/ml, 24 hrs
T1 construct: endogenous in cells
Experimental: (§1) The present invention has checked the effect of various TLR ligands on THP-1 monocytes, PBMCs and their ability to activate and release TNF-α. For this purpose about 9 TLR ligands were used. These ligands were obtained from Apotech Cat; APO-54N-018-K101 and assayed for TNF-α release in culture supernatants. THP-1 (FIG. 1a) and PBMCs (2×10^5 cells/well) (FIG. 1b) were plated in 96-well plate. The cells were pretreated with RSCL-0520 in DMSO 1 hr prior to TLR ligand treatment. Following 1 hr pre-treatment, the cells were treated with TLR ligands [TLR2, TLR5 and TLR6-75 ng/ml each, TLR3-75 μg/ml, TLR4-750 ng/ml, TLR7, TLR8 and TLR9-7.5 μg/ml) for 24 hrs. The culture supernatant were collected after the stipulated time and assayed for TNF-α release using a Duoset Enzyme-Linked ImmunoSorbent Assay (ELISA) detection Kit (R&D systems, MN 55413, USA; Cat: DY-210 E). Simultaneously, supernatants from cells treated with ligands without RSCL-0520 pre-treatment and RSCL-0520 without ligand treatment were collected which served as respective controls.

serum TNF-α [2] = test: LPS induced TNF-α release in Balb/c mice, treatment post LPS; assay type: in vivo
Experimental: (§2) The present invention has studied the ability of RSCL-0520 to exert protection against inflammatory agents in a mice (Balb/c) model. Balb/c (5-6 weeks) mice were injected with LPS (225 μg) intraperitoneally with and without pretreatment of RSCL-0520 (10 and 20 mg/kg). The compound was injected intraperitoneally 30 min before LPS treatment. The mice were monitored for 1 hr post LPS treatment. Untreated mice served as controls. Blood from retro-orbital plexus was collected under anesthesia 1 hr post LPS injection. Serum collected was analysed for TNF-α secretion using an ELISA detection kit.
Our results have more significance from the post LPS treatment of RSCL-0520. Here we have stimulated the inflammation process in mice with an injection of LPS (225 μg) intraperitoneally and 30 min post LPS, we have challenged the ability of RSCL-0520 at two different doses (10 mg/kg, 20 mg/kg) to inhibit the TNF-α secretion.

TNF = test: Pre-screen of anti-TNF activity, cells + LPS (Table 2); assay type: cell-based
THP-1 cells = test: Toxicity to THP-1 cells by MTT assay; assay type: cell-based, human; conditions: analyzed in tandem with TNF-α assay
Description: The toxicity of RSCL-0520 (FIG. 2b) was also by treating cells with RSCL-0520 by MTT assay. […] The viability of the cells (analyzed in tandem by MTT) was not affected by RSCL-0520 indicating its non-toxic nature.

serum TNF-α [3] = test: LPS induced TNF-α release in Balb/c mice, pre-treatment; assay type: in vivo; conditions: serum 1 hr post LPS
Experimental: as §2

TLR4 [4] = target: T1, TLR4; test: TLR4 ligand induced TNF-α secretion in THP-1 cells (ELISA); assay type: cell-based; conditions: 1 hr pretreatment, TLR4 ligand 750 ng/ml, 24 hrs
Experimental: as §1

T1 sequence (O00206 24-839): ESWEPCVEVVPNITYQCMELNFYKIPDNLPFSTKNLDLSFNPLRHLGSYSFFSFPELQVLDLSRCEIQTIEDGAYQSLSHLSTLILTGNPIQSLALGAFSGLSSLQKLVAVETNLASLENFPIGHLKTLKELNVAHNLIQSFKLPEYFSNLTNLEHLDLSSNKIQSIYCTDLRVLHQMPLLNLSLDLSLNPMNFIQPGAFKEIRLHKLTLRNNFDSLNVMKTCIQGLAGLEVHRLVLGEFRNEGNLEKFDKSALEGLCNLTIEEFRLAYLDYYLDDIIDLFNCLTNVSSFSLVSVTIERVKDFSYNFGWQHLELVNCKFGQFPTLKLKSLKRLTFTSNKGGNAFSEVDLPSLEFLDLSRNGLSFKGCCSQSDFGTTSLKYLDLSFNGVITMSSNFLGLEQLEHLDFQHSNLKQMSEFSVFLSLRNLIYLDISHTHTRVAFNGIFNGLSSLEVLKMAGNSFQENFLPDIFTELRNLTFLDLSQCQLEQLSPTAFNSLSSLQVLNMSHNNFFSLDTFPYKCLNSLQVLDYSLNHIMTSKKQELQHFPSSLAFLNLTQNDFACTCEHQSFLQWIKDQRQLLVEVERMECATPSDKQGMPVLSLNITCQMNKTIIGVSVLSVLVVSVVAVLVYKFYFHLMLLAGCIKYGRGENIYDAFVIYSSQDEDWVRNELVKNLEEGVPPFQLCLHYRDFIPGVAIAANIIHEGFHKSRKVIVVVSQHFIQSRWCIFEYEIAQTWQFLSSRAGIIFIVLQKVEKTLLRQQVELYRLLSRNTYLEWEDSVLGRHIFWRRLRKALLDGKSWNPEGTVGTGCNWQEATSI
T1 sequence (Q9Y6Y9 17-160 partner limits assumed): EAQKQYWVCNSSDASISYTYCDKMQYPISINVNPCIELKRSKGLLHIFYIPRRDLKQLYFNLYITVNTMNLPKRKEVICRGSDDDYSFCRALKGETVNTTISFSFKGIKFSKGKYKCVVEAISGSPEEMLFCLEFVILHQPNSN

SMILES	inhibition at 1 µM (TNF; Cells + 1 μM + LPS) [%]	inhibition at 10 µM (TNF; Cells + 10 μM + LPS) [%]	inhibition at 50 µM (TNF; Cells + 50 μM + LPS) [%]	inhibition at 100 µM (TNF; Cells + 100 μM + LPS) [%]	other results
COc1cc(O)c2c(c1)CCc1c-2ccc(OC)c1O [RSCL-0520, 1,5-dihydroxy-2,7-dimethoxy-9,10-dihydrophenanthrene]	4	40	95	100	decrease of TNF-α production (TLR4 [1]): ~50%; inhibition of TNF secretion (serum TNF-α [2]; 10 mg/kg given 30 min post LPS 225 μg i.p.): ~38%; inhibition of TNF secretion (serum TNF-α [2]; 20 mg/kg given 30 min post LPS 225 μg i.p.): 49%; viability of the cells (MTT) (THP-1 cells): not affected; reduction of serum TNF production (serum TNF-α [3]; 10 mg/kg i.p. 30 min before LPS 225 μg i.p.): ~66%; reduction of serum TNF production (serum TNF-α [3]; 20 mg/kg i.p. 30 min before LPS 225 μg i.p.): ~70%; decrease of TNF-α production (TLR4 [4]): ~50%
COc1c(OC(C)=O)cc2ccc3cc(OC(C)=O)ccc3c2c1OC [RSCL-0519, 2,7-diacetoxy-3,4-dimethoxyphenanthrene]	0	0	21	72	
COc1ccc2c(ccc3cc(OC)c(OC)c(OC)c32)c1 [RSCL-0575, 2,3,4,7-tetramethoxyphenanthrene]	26	33	32	49	
COc1c(OC(=O)/C=C/c2ccc(OC(C)=O)c(OC(C)=O)c2)cc2ccc3cc(OC(=O)/C=C/c4ccc(OC(C)=O)c(OC(C)=O)c4)ccc3c2c1OC [RSCL-0522, 3,4-dimethoxyphenanthrene-2,7-bis-[(2E)-3-[3,4-bis(acetyloxy)phenyl] acrylate]					% TNF Inhibition (TNF; Cells + 1 μM + LPS): 0%; % TNF Inhibition (TNF; Cells + 10 μM + LPS): 12%; % TNF Inhibition (TNF; Cells + 50 μM + LPS): 37%; % TNF Inhibition (TNF; Cells + 100 μM + LPS): 34%
COc1c(O)cc2ccc3cc(O)ccc3c2c1OC [RSCL-0518, 2,7-dihydroxy-3,4-dimethoxyphenanthrene]	0	0	39	87	
COc1cc(OCc2ccccc2)c2c(ccc3c(OCc4ccccc4)c(OC)ccc32)c1 [RSCL-0638, 1,5-dibenzyloxy-2,7-dimethoxy phenanthrene]	0	0	0	0	
COc1cc2c(c(OC(C)=O)c1)-c1ccc(OC)c(OC(C)=O)c1CC2 [RSCL-0521, 1,5-diacetoxy-2,7-dimethoxy-9,10-dihydrophenanthrene]	0	13	76	92	
